According to PubChem BioAssay (NCI):
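48-hour exposure; five concentrations; linearly interpolated endpoints. Definition used: TGI = concentration required for complete inhibition of growth.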

What was measured:
Assay in all cases: NCI-60 cell line screen, 48 h
[1] = tested on: 786-0 renal
[2] = tested on: A498 renal
[3] = tested on: A549 NSCLC
[4] = tested on: ACHN renal
[5] = tested on: BT-549 breast
[6] = tested on: CAKI-1 renal
[7] = tested on: CCRF-CEM leukemia
[8] = tested on: COLO 205 colon
[9] = tested on: DLD-1 colon
[10] = tested on: DMS 114 small cell lung
[11] = tested on: DU-145 prostate
[12] = tested on: EKVX NSCLC
[13] = tested on: HCC-2998 colon
[14] = tested on: HCT-116 colon
[15] = tested on: HCT-15 colon
[16] = tested on: HL-60(TB) leukemia
[17] = tested on: HOP-62 NSCLC
[18] = tested on: HOP-92 NSCLC
[19] = tested on: HS 578T breast
[20] = tested on: HT29 colon
[21] = tested on: IGROV1 ovarian
[22] = tested on: K-562 leukemia
[23] = tested on: KM12 colon
[24] = tested on: KM20L2 colon
[25] = tested on: LOX IMVI melanoma
[26] = tested on: LXFL 529 NSCLC
[27] = tested on: M14 melanoma
[28] = tested on: M19-MEL melanoma
[29] = tested on: MALME-3M melanoma
[30] = tested on: MCF7 breast
[31] = tested on: MDA-MB-435
[32] = tested on: MDA-N
[33] = tested on: MOLT-4 leukemia
[34] = tested on: NCI-H226 lung
[35] = tested on: NCI-H23 lung
[36] = tested on: NCI-H460 lung
[37] = tested on: NCI-H522 lung
[38] = tested on: NCI/ADR-RES ovarian
[39] = tested on: OVCAR-3 ovarian
[40] = tested on: OVCAR-4 ovarian
[41] = tested on: OVCAR-5 ovarian
[42] = tested on: OVCAR-8 ovarian
[43] = tested on: PC-3 prostate
[44] = tested on: RPMI-8226 leukemia
[45] = tested on: RXF 393 renal
[46] = tested on: SF-268 CNS
[47] = tested on: SF-295 CNS
[48] = tested on: SF-539 CNS
[49] = tested on: SK-MEL-2 melanoma
[50] = tested on: SK-MEL-28 melanoma
[51] = tested on: SK-MEL-5 melanoma
[52] = tested on: SK-OV-3 ovarian
[53] = tested on: SN12C renal
[54] = tested on: SNB-19 CNS
[55] = tested on: SNB-75 CNS
[56] = tested on: SNB-78 CNS
[57] = tested on: SW-620 colon
[58] = tested on: T-47D breast
[59] = tested on: TK-10 renal
[60] = tested on: U251 CNS
[61] = tested on: UACC-257 melanoma
[62] = tested on: UACC-62 melanoma
[63] = tested on: UO-31 renal
[64] = tested on: MDA-MB-231 breast
[65] = tested on: SR leukemia

## Cc1nc(-n2nc(-c3ccccc3)cc2-c2ccccc2)sc1C(/C=C\c1ccc([N+](=O)[O-])cc1)=N/NC(=S)NN
[1]
  TGI: 46 µM
[2]
  TGI: > 100 µM
[3]
  TGI: > 100 µM
[4]
  TGI: > 82 µM
[5]
  TGI: 49.2 µM
[6]
  TGI: > 56.5 µM
[7]
  TGI: > 100 µM
[8]
  TGI: > 31.6 µM
[9]
  TGI: 48.6 µM
[10]
  TGI: > 100 µM
[11]
  TGI: 98.9 µM
[12]
  TGI: > 100 µM
[13]
  TGI: 40.3 µM
[14]
  TGI: 41 µM
[15]
  TGI: 56.6 µM
[16]
  TGI: > 87.2 µM
[17]
  TGI: 52.2 µM
[18]
  TGI: > 100 µM
[19]
  TGI: > 100 µM
[20]
  TGI: > 72 µM
[21]
  TGI: > 72 µM
[22]
  TGI: > 100 µM
[23]
  TGI: > 100 µM
[24]
  TGI: > 100 µM
[25]
  TGI: > 66.5 µM
[26]
  TGI: > 100 µM
[27]
  TGI: > 80.1 µM
[28]
  TGI: > 100 µM
[29]
  TGI: > 100 µM
[30]
  TGI: 35.1 µM
[31]
  TGI: > 100 µM
[32]
  TGI: 50.7 µM
[33]
  TGI: > 100 µM
[34]
  TGI: > 86.6 µM
[35]
  TGI: 60.6 µM
[36]
  TGI: > 66.7 µM
[37]
  TGI: 42.3 µM
[38]
  TGI: 85.3 µM
[39]
  TGI: > 70.7 µM
[40]
  TGI: > 100 µM
[41]
  TGI: > 65.4 µM
[42]
  TGI: 28.6 µM
[43]
  TGI: > 100 µM
[44]
  TGI: > 100 µM
[45]
  TGI: > 59 µM
[46]
  TGI: > 61.3 µM
[47]
  TGI: > 100 µM
[48]
  TGI: > 61.3 µM
[49]
  TGI: 98.5 µM
[50]
  TGI: > 100 µM
[51]
  TGI: > 53.4 µM
[52]
  TGI: > 100 µM
[53]
  TGI: > 31.6 µM
[54]
  TGI: > 80 µM
[55]
  TGI: > 100 µM
[56]
  TGI: > 100 µM
[57]
  TGI: > 100 µM
[58]
  TGI: 87.7 µM
[59]
  TGI: > 59.2 µM
[60]
  TGI: > 100 µM
[61]
  TGI: > 67.7 µM
[62]
  TGI: > 57.7 µM
[63]
  TGI: > 58.3 µM

## Clc1cccc(C=NC23CC4CC(CC(C4)C2)C3)c1Cl
[1]
  TGI: > 10 µM
[2]
  TGI: > 10 µM
[3]
  TGI: > 10 µM
[4]
  TGI: > 10 µM
[5]
  TGI: > 10 µM
[6]
  TGI: > 10 µM
[7]
  TGI: > 10 µM
[8]
  TGI: > 10 µM
[11]
  TGI: > 10 µM
[12]
  TGI: > 10 µM
[13]
  TGI: > 10 µM
[14]
  TGI: > 10 µM
[15]
  TGI: > 10 µM
[16]
  TGI: > 10 µM
[17]
  TGI: > 10 µM
[18]
  TGI: > 10 µM
[19]
  TGI: > 10 µM
[20]
  TGI: > 10 µM
[21]
  TGI: > 10 µM
[22]
  TGI: > 10 µM
[23]
  TGI: > 10 µM
[25]
  TGI: > 10 µM
[27]
  TGI: > 10 µM
[29]
  TGI: > 10 µM
[30]
  TGI: > 10 µM
[64]
  TGI: > 10 µM
[31]
  TGI: > 10 µM
[32]
  TGI: > 10 µM
[34]
  TGI: > 10 µM
[35]
  TGI: > 10 µM
[36]
  TGI: > 10 µM
[37]
  TGI: > 10 µM
[38]
  TGI: > 10 µM
[39]
  TGI: > 10 µM
[40]
  TGI: > 10 µM
[41]
  TGI: > 10 µM
[42]
  TGI: > 10 µM
[43]
  TGI: > 10 µM
[44]
  TGI: > 10 µM
[45]
  TGI: > 10 µM
[46]
  TGI: > 10 µM
[47]
  TGI: > 10 µM
[48]
  TGI: > 10 µM
[49]
  TGI: > 10 µM
[50]
  TGI: > 10 µM
[51]
  TGI: > 10 µM
[52]
  TGI: > 10 µM
[53]
  TGI: > 10 µM
[54]
  TGI: > 10 µM
[55]
  TGI: > 10 µM
[65]
  TGI: 2.63 µM
[57]
  TGI: > 10 µM
[58]
  TGI: > 10 µM
[59]
  TGI: > 10 µM
[60]
  TGI: > 10 µM
[61]
  TGI: > 10 µM
[62]
  TGI: > 10 µM

## COc1ccc2cc(CNCCOCCOCCNCc3ccc4cc(OC)ccc4c3)ccc2c1
[1]
  TGI: 2.19 µM
[2]
  TGI: 3.78 µM
[3]
  TGI: 3.12 µM
[4]
  TGI: 3.01 µM
[5]
  TGI: 3.59 µM
[6]
  TGI: 3.22 µM
[7]
  TGI: 1.24 µM
[8]
  TGI: 0.346 µM
[11]
  TGI: 3.15 µM
[12]
  TGI: 3.21 µM
[13]
  TGI: 0.319 µM
[14]
  TGI: 7.86 µM
[15]
  TGI: 1.63 µM
[16]
  TGI: 0.657 µM
[17]
  TGI: 3.87 µM
[18]
  TGI: 3.05 µM
[19]
  TGI: 3.46 µM
[20]
  TGI: 0.394 µM
[21]
  TGI: 3.45 µM
[22]
  TGI: 1.92 µM
[23]
  TGI: 2.27 µM
[25]
  TGI: 1.22 µM
[27]
  TGI: 0.687 µM
[29]
  TGI: 2.83 µM
[30]
  TGI: 2.5 µM
[64]
  TGI: 2.91 µM
[31]
  TGI: 1.21 µM
[32]
  TGI: 2.35 µM
[33]
  TGI: 2.44 µM
[34]
  TGI: 3.09 µM
[35]
  TGI: 3.02 µM
[36]
  TGI: 1.51 µM
[37]
  TGI: 3.49 µM
[38]
  TGI: 3.02 µM
[39]
  TGI: 3.54 µM
[40]
  TGI: 4.07 µM
[41]
  TGI: 3.89 µM
[42]
  TGI: 2.97 µM
[43]
  TGI: 3.16 µM
[44]
  TGI: 2.03 µM
[45]
  TGI: 3.18 µM
[46]
  TGI: 2.99 µM
[47]
  TGI: 2.59 µM
[48]
  TGI: 3.03 µM
[49]
  TGI: 3.18 µM
[50]
  TGI: 2.69 µM
[51]
  TGI: 1.81 µM
[52]
  TGI: 3.28 µM
[53]
  TGI: 3.85 µM
[54]
  TGI: 3.09 µM
[55]
  TGI: 3.03 µM
[65]
  TGI: 2.29 µM
[57]
  TGI: 3.69 µM
[58]
  TGI: 3.22 µM
[59]
  TGI: 2.98 µM
[60]
  TGI: 8.46 µM
[61]
  TGI: 3.18 µM
[62]
  TGI: 3.38 µM
[63]
  TGI: 2.61 µM
